Data as given in US20130065883A1 (Centro Nacional de Investigaceiones Oncologicas (CNIO), priority 2010, published 2013).
Where two headings read alike, the source gives them in different places.

Legend:
[1] = system: H1299 cells overexpressing Pim1 (H1299Pim1); test: BAD S112 phosphorylation inhibition assay (In Cell ELISA); type: cell-based; conditions: Homo sapiens, NCI-H1299, inhibition of Bad-phosphorylation, read-out: Cell assay BAD_P H1299 PIM1
PIM-3 = target: T1, PIM-3 (Homo sapiens, UniProt Q86V86); test: PIM-3 biochemical assay (ADP Hunter); conditions: read-out: PIM3 IC50;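 also: kinase activity read out as the quantity of ADP generated by the enzyme reaction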
T1 construct: purchased Millipore 14-738

FLT3 = target: T2, FLT3 (Homo sapiens, UniProt P36888); test: FLT3 biochemical assay (ADP Hunter);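 also: FLT3 enzymatic activity quantified through the ADP produced by the kinase reaction, detected with an ADP Hunter readout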
T2 sequence (P36888 27-993): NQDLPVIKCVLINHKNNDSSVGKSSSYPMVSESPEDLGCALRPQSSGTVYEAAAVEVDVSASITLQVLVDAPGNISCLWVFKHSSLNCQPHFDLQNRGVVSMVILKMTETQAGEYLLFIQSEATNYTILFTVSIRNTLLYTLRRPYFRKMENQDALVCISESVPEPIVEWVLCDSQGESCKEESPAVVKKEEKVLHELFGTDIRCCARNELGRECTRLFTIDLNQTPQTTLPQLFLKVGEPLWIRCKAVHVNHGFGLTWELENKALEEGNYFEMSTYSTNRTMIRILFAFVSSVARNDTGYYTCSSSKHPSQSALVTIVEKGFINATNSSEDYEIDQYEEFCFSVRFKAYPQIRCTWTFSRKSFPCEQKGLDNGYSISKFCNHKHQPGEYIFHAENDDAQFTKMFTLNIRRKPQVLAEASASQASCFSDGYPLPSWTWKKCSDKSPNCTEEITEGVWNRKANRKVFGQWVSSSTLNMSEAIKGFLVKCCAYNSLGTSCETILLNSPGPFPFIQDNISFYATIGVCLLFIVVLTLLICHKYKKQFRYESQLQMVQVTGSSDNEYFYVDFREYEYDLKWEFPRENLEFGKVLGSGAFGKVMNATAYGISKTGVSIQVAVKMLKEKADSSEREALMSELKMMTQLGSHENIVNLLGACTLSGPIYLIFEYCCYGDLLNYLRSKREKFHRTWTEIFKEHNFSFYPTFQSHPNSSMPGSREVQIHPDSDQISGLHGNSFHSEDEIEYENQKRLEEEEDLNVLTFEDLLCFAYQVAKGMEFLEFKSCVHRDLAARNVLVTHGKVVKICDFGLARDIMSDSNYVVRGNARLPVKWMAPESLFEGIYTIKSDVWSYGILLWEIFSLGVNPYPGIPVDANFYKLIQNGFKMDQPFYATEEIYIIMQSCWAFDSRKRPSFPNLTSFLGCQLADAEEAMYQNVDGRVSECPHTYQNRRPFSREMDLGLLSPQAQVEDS

PIM-2 = target: T3, PIM-2 (Homo sapiens, UniProt Q9P1W9); test: PIM-2 biochemical assay (ADP Hunter); conditions: semi-quantitative class; read-out: PIM2 IC50;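 also: recombinant N-terminally His-tagged human enzyme, kinase activity quantified by detection of ADP formed as the direct reaction product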
T3 construct: histidine tag (N); made in house

PIM-1 = target: T4, PIM-1 (Homo sapiens, UniProt P11309); test: PIM-1 biochemical assay (ADP Hunter); conditions: read-out: PIM1 IC50;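 also: recombinant human PIM-1 carrying a C-terminal His tag, kinase activity quantified via ADP formed as the direct enzymatic product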
T4 construct: histidine tag (C); made in house

[2] = Metabolic stability assay; type: in vitro ADME; conditions: percentage metabolic stability in human liver microsomes
Procedure: The metabolic stability assay was performed in Wuxi. 1 μM, 15 min. The kinase selectivity testing was performed in ProQinase GmbH, Germany.

panel of 24 kinases = test: Kinase selectivity testing (percentage inhibition of 24 kinases at 1 μM); type: biochemical; conditions: proquinase; for % inhibiton at 1 uM AKT2: AKT2, 1 uM; for % inhibiton at 1 uM CHK1: CHK1, 1 uM; for % inhibiton at 1 uM CK1 Alpha 1: CK1 Alpha 1, 1 uM; for % inhibiton at 1 uM FGFR1: FGFR1, 1 uM; for % inhibiton at 1 uM JAK2: JAK2, 1 uM; for % inhibiton at 1 uM MEK1: MEK1, 1 uM; for % inhibiton at 1 uM PAK1: PAK1, 1 uM; for % inhibiton at 1 uM PDK1: PDK1, 1 uM; for % inhibiton at 1 uM PLK1: PLK1, 1 uM; for % inhibiton at 1 uM RPS5 KA1: RPS5 KA1, 1 uM; for % inhibiton at 1 uM SGK1: SGK1, 1 uM
[3] = actual IC50 value in parentheses

T4 sequence (P11309 whole entry): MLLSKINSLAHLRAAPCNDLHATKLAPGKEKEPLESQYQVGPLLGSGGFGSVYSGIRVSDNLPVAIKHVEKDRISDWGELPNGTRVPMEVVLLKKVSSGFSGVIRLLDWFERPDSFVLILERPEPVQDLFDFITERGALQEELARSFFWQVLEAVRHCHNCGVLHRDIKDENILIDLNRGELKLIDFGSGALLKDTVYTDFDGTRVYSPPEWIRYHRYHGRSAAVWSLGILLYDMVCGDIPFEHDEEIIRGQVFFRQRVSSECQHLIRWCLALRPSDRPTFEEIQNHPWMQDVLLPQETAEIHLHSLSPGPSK
T3 sequence (Q9P1W9 whole entry): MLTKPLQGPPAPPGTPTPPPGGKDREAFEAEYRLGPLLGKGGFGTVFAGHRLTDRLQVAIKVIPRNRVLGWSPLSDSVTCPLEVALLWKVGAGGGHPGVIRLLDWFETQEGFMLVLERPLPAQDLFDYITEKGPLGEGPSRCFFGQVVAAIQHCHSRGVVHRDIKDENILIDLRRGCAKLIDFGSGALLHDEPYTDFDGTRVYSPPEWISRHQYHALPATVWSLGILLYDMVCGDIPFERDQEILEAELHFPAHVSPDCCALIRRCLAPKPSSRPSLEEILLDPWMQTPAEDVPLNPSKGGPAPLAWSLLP

| Compound | EC50 [1] | Stability in HLM [2] | % inhibiton at 1 uM AKT2 (panel of 24 kinases) | % inhibiton at 1 uM B_RAF V600E (panel of 24 kinases) | % inhibiton at 1 uM CDK8 CYCC (panel of 24 kinases) | % inhibiton at 1 uM CHK1 (panel of 24 kinases) | % inhibiton at 1 uM CK1 Alpha 1 (panel of 24 kinases) | % inhibiton at 1 uM DYRK 1A (panel of 24 kinases) | % inhibiton at 1 uM EGF_R (panel of 24 kinases) | % inhibiton at 1 uM FAK (panel of 24 kinases) | % inhibiton at 1 uM FGFR1 (panel of 24 kinases) | % inhibiton at 1 uM IGF1_R (panel of 24 kinases) | % inhibiton at 1 uM IKK BETA (panel of 24 kinases) | % inhibiton at 1 uM INS_R (panel of 24 kinases) | % inhibiton at 1 uM JAK2 (panel of 24 kinases) | % inhibiton at 1 uM KIT (panel of 24 kinases) | % inhibiton at 1 uM MEK1 (panel of 24 kinases) | % inhibiton at 1 uM MET (panel of 24 kinases) | % inhibiton at 1 uM PAK1 (panel of 24 kinases) | % inhibiton at 1 uM PDGFR Alpha (panel of 24 kinases) | further results |
| --- | --- | --- | --- | --- | --- | --- | --- | --- | --- | --- | --- | --- | --- | --- | --- | --- | --- | --- | --- | --- | --- |
| O[C@H]1CC[C@@H](Nc2nc3c(cc2Cl)nnn3-c2cccc(OC(F)(F)F)c2)CC1 [2-85] | 262 nM |  |  |  |  |  |  |  |  |  |  |  |  |  |  |  |  |  |  |  | IC50 (PIM-3; semi-quantitative class): 100 to 1000 nM; IC50 (FLT3; semi-quantitative class): 100 to 1000 nM; IC50 (PIM-2): 100 to 1000 nM; IC50 (PIM-1; [3]): 74 nM; IC50 (PIM-1; semi-quantitative class): < 100 nM |
| FC(F)(F)c1cccc(-n2nnc3cc(Cl)c(NCC4CCNCC4)nc32)c1 [2-83] | 458 nM | 112.7% | 0% | 11% | 14% | 6% | 3% | 7% | 8% | 16% | 39% | 13% | 0% | 6% | 1% | 26% | 2% | 0% | 11% | 14% | IC50 (PIM-3; [3]): 6 nM; IC50 (PIM-3; semi-quantitative class): < 100 nM; IC50 (FLT3; [3]): 94 nM; IC50 (FLT3; semi-quantitative class): < 100 nM; IC50 (PIM-2): > 1000 nM; % inhibiton at 1 uM PDK1 (panel of 24 kinases): 3%; % inhibiton at 1 uM PLK1 (panel of 24 kinases): 0%; % inhibiton at 1 uM RPS5 KA1 (panel of 24 kinases): 36%; % inhibiton at 1 uM SGK1 (panel of 24 kinases): 6%; % inhibiton at 1 uM SRC (panel of 24 kinases): 24%; IC50 (PIM-1; [3]): 21 nM; IC50 (PIM-1; semi-quantitative class): < 100 nM |
| COc1cc(NCC2CCNCC2)nc2c1nnn2-c1cccc(N(C)C)c1 [2-87] | 100 nM | 86.25% | 4% | 0% | 0% | 3% | 5% | 1% | 0% | 6% | 6% | 0% | 0% | 0% | 1% | 10% | 7% | 0% | 10% | 0% | % inhibiton at 1 uM PDK1 (panel of 24 kinases): 9%; % inhibiton at 1 uM PLK1 (panel of 24 kinases): 2%; % inhibiton at 1 uM RPS5 KA1 (panel of 24 kinases): 12%; % inhibiton at 1 uM SGK1 (panel of 24 kinases): 9%; % inhibiton at 1 uM SRC (panel of 24 kinases): 0% |
| FC(F)(F)Oc1cccc(-n2nnc3ccc(NC4CC5(CCNCC5)C4)nc32)c1 [2-66] |  | 91.1% | 0% | 15% | 3% | 13% | 0% | 30% | 18% | 19% | 4% | 16% | 5% | 7% | 3% | 30% | 0% | 3% | 11% | 12% | % inhibiton at 1 uM PDK1 (panel of 24 kinases): 4%; % inhibiton at 1 uM RPS5 KA1 (panel of 24 kinases): 19%; % inhibiton at 1 uM SGK1 (panel of 24 kinases): 2%; % inhibiton at 1 uM SRC (panel of 24 kinases): 28% |
